Test: Compatibility of antimicrobial agent with sterilization procedures
Format: physicochemical
Settings: comparison of Tables II and III
Description: Optionally, in embodiments of the present invention, the potential agent can be tested for its compatibility with one or more sterilization procedures. This optional screening procedure can also be performed by mixing an appropriate amount of the agent with a desired amount of the monomer composition and any other desired additives, and then subjecting the resultant composition to one or more sterilization procedures. Compatibility of the agent with one or more sterilization procedures is preferred in embodiments of the present invention because many uses of the polymerizable monomer compositions, such as many medical applications, require or prefer sterilized products. Following sterilization, the agent can exert antimicrobial action in killing or preventing growth of microbes that may be introduced into the pre-sterilized monomer compositions.

With `Cc1ccc(C(C)C)c(O)c1` [thymol] the “Compatibility with forms of sterilization” value was “more compatible with one form of sterilization than it is with another form of sterilization”.
